Measured values published in ChEMBL document CHEMBL1201862, “PubChem BioAssay data set” (2004).
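Cultured in 96-well plates, cells were exposed to test compound for 48 hours across five concentrations. Here, GI50 denotes the concentration required for 50% inhibition of growth.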 Calls of active or inactive are those of the source. No stated cut-off is given here; in the data, active = GI50 up to about 1.1 µM and inactive = higher.

Key:
Assay in all cases: NCI-60 cell line screen, 48 h
IGROV-1 = system: IGROV-1
NCI-H522 = system: NCI-H522
HCC 2998 = system: HCC 2998
PC-3 = system: PC-3
NCI-H460 = system: NCI-H460
UACC-62 = system: UACC-62
SN12C = system: SN12C
U-251 = system: U-251
TK-10 = system: TK-10
RPMI-8226 = system: RPMI-8226
MOLT-4 = system: MOLT-4
UACC-257 = system: UACC-257
A498 = system: A498
OVCAR-4 = system: OVCAR-4
SF-295 = system: SF-295
SF-268 = system: SF-268
Malme-3M = system: Malme-3M
786-0 = system: 786-0
HCT-116 = system: HCT-116
OVCAR-8 = system: OVCAR-8
NCI-H226 = system: NCI-H226
DU-145 = system: DU-145
CAKI-1 = system: CAKI-1
LOX IMVI = system: LOX IMVI
COLO 205 = system: COLO 205
NCI-H23 = system: NCI-H23
SNB-75 = system: SNB-75
HOP-62 = system: HOP-62
HL-60 = system: HL-60
RXF 393 = system: RXF 393
KM12 = system: KM12
ACHN = system: ACHN
SR = system: SR
T47D = system: T47D
MDA-N = system: MDA-N
NCI/ADR-RES = system: NCI/ADR-RES
UO-31 = system: UO-31
BT-549 = system: BT-549
Hs-578T = system: Hs-578T
EKVX = system: EKVX
OVCAR-5 = system: OVCAR-5
MDA-MB-435 = system: MDA-MB-435
SK-MEL-5 = system: SK-MEL-5
MDA-MB-231 = system: MDA-MB-231
MCF7 = system: MCF7
HCT-15 = system: HCT-15
HT-29 = system: HT-29
K562 = system: K562
SW-620 = system: SW-620
OVCAR-3 = system: OVCAR-3
SK-MEL-2 = system: SK-MEL-2
SNB-19 = system: SNB-19
SK-MEL-28 = system: SK-MEL-28
CCRF-CEM = system: CCRF-CEM
SF-539 = system: SF-539
SK-OV-3 = system: SK-OV-3
A549 = system: A549
M14 = system: M14
HOP-92 = system: HOP-92

## O=C1NC(=S)N/C1=C\c1cc2c(=O)c3ccccc3sc2s1
IGROV-1
  GI50: 40.7 µM (inactive)
NCI-H522
  GI50: 71 µM (inactive)
HCC 2998
  GI50: 71.1 µM (inactive)
PC-3
  GI50: 72.1 µM (inactive)
NCI-H460
  GI50: 64 µM (inactive)
UACC-62
  GI50: 29.4 µM (inactive)
SN12C
  GI50: > 100 µM (inactive)
U-251
  GI50: 30.7 µM (inactive)
TK-10
  GI50: 97.7 µM (inactive)
RPMI-8226
  GI50: 25.6 µM (inactive)
MOLT-4
  GI50: 23.5 µM (inactive)
UACC-257
  GI50: > 100 µM (inactive)
A498
  GI50: > 100 µM (inactive)
OVCAR-4
  GI50: 76 µM (inactive)
SF-295
  GI50: 70.5 µM (inactive)
SF-268
  GI50: > 100 µM (inactive)
Malme-3M
  GI50: > 100 µM (inactive)
786-0
  GI50: 40.2 µM (inactive)
HCT-116
  GI50: 36.4 µM (inactive)
OVCAR-8
  GI50: 57.5 µM (inactive)
NCI-H226
  GI50: > 100 µM (inactive)
DU-145
  GI50: > 100 µM (inactive)
CAKI-1
  GI50: > 100 µM (inactive)
LOX IMVI
  GI50: 59.7 µM (inactive)
COLO 205
  GI50: 47.4 µM (inactive)
NCI-H23
  GI50: 52.8 µM (inactive)
SNB-75
  GI50: 26.4 µM (inactive)
HOP-62
  GI50: 32.5 µM (inactive)
HL-60
  GI50: 36.5 µM (inactive)
RXF 393
  GI50: 68.1 µM (inactive)
KM12
  GI50: > 100 µM (inactive)
ACHN
  GI50: 60.8 µM (inactive)
SR
  GI50: 22.8 µM (inactive)
T47D
  GI50: > 100 µM (inactive)
MDA-N
  GI50: 87.7 µM (inactive)
NCI/ADR-RES
  GI50: > 100 µM (inactive)
UO-31
  GI50: 58.5 µM (inactive)
BT-549
  GI50: 35 µM (inactive)
Hs-578T
  GI50: 64.6 µM (inactive)
EKVX
  GI50: 3.51 µM (inactive)
OVCAR-5
  GI50: > 100 µM (inactive)
MDA-MB-435
  GI50: > 100 µM (inactive)
SK-MEL-5
  GI50: > 100 µM (inactive)
MDA-MB-231
  GI50: > 100 µM (inactive)
MCF7
  GI50: 35.8 µM (inactive)
HCT-15
  GI50: > 100 µM
HT-29
  GI50: 55.1 µM (inactive)
K562
  GI50: 29.9 µM (inactive)
SW-620
  GI50: 57.8 µM (inactive)
OVCAR-3
  GI50: 54.1 µM (inactive)
SK-MEL-2
  GI50: > 100 µM (inactive)
SNB-19
  GI50: 33.4 µM (inactive)
SK-MEL-28
  GI50: 40.4 µM (inactive)

## CCN(CC)CCC(=O)c1ccc(Oc2ccc(F)cc2)cc1
IGROV-1
  GI50: 20.3 µM (inactive)
HCC 2998
  GI50: 20 µM (inactive)
PC-3
  GI50: 24 µM (inactive)
UACC-62
  GI50: 17.9 µM (inactive)
SN12C
  GI50: 18.2 µM (inactive)
U-251
  GI50: 17.1 µM (inactive)
TK-10
  GI50: 17.5 µM (inactive)
RPMI-8226
  GI50: 4.57 µM (inactive)
MOLT-4
  GI50: 20.2 µM (inactive)
UACC-257
  GI50: 17.8 µM (inactive)
OVCAR-4
  GI50: 39.4 µM (inactive)
SF-295
  GI50: 39.4 µM (inactive)
SF-268
  GI50: 18.3 µM (inactive)
Malme-3M
  GI50: 18.5 µM (inactive)
786-0
  GI50: 14.8 µM (inactive)
HCT-116
  GI50: 16.6 µM (inactive)
CCRF-CEM
  GI50: 20.6 µM (inactive)
OVCAR-8
  GI50: 22.9 µM (inactive)
NCI-H226
  GI50: > 100 µM (inactive)
DU-145
  GI50: 23.8 µM (inactive)
CAKI-1
  GI50: 17.1 µM (inactive)
LOX IMVI
  GI50: 15.4 µM (inactive)
COLO 205
  GI50: 19.2 µM (inactive)
SF-539
  GI50: 17.3 µM (inactive)
NCI-H23
  GI50: 20.6 µM (inactive)
SNB-75
  GI50: 26.7 µM (inactive)
SK-OV-3
  GI50: > 100 µM (inactive)
HOP-62
  GI50: 22.3 µM (inactive)
RXF 393
  GI50: 16.2 µM (inactive)
KM12
  GI50: 12.2 µM (inactive)
ACHN
  GI50: 18.4 µM (inactive)
SR
  GI50: 12.5 µM (inactive)
T47D
  GI50: 20 µM (inactive)
MDA-N
  GI50: 18 µM (inactive)
NCI/ADR-RES
  GI50: 26.2 µM (inactive)
A549
  GI50: > 100 µM (inactive)
BT-549
  GI50: 18.3 µM (inactive)
Hs-578T
  GI50: 24.2 µM (inactive)
EKVX
  GI50: 20.6 µM (inactive)
OVCAR-5
  GI50: 17.9 µM (inactive)
MDA-MB-435
  GI50: 17.5 µM (inactive)
MDA-MB-231
  GI50: 17.1 µM (inactive)
MCF7
  GI50: 17.9 µM (inactive)
M14
  GI50: 18.3 µM (inactive)
HCT-15
  GI50: 18.2 µM
HT-29
  GI50: 19.8 µM (inactive)
K562
  GI50: 38.3 µM (inactive)
SW-620
  GI50: 18.4 µM (inactive)
HOP-92
  GI50: 18.3 µM (inactive)
OVCAR-3
  GI50: 17.1 µM (inactive)
SK-MEL-2
  GI50: 46.2 µM (inactive)
SNB-19
  GI50: 18 µM (inactive)
SK-MEL-28
  GI50: 16.4 µM (inactive)

## COc1ccc(/N=N/c2c(C)c(C#N)c(=S)n(C3OC(COC(C)=O)C(OC(C)=O)C(OC(C)=O)C3OC(C)=O)c2C)cc1 (stereo not drawn)
IGROV-1
  GI50: > 100 µM (inactive)
HCC 2998
  GI50: > 100 µM (inactive)
PC-3
  GI50: > 100 µM (inactive)
NCI-H460
  GI50: > 100 µM (inactive)
UACC-62
  GI50: > 100 µM (inactive)
SN12C
  GI50: > 100 µM (inactive)
U-251
  GI50: 8.09 µM (inactive)
TK-10
  GI50: > 100 µM (inactive)
RPMI-8226
  GI50: > 100 µM (inactive)
MOLT-4
  GI50: > 100 µM (inactive)
UACC-257
  GI50: > 100 µM (inactive)
OVCAR-4
  GI50: > 100 µM (inactive)
SF-295
  GI50: 57.5 µM (inactive)
SF-268
  GI50: > 100 µM (inactive)
Malme-3M
  GI50: > 100 µM (inactive)
786-0
  GI50: 22.5 µM (inactive)
HCT-116
  GI50: > 100 µM (inactive)
CCRF-CEM
  GI50: > 100 µM (inactive)
DU-145
  GI50: > 100 µM (inactive)
CAKI-1
  GI50: > 100 µM (inactive)
LOX IMVI
  GI50: > 100 µM (inactive)
COLO 205
  GI50: > 100 µM (inactive)
SF-539
  GI50: > 100 µM (inactive)
NCI-H23
  GI50: > 100 µM (inactive)
SNB-75
  GI50: 16.1 µM (inactive)
SK-OV-3
  GI50: 54.5 µM (inactive)
HOP-62
  GI50: 64.3 µM (inactive)
HL-60
  GI50: > 100 µM (inactive)
RXF 393
  GI50: 62.5 µM (inactive)
KM12
  GI50: > 100 µM (inactive)
ACHN
  GI50: > 100 µM (inactive)
SR
  GI50: > 100 µM (inactive)
T47D
  GI50: > 100 µM (inactive)
MDA-N
  GI50: > 100 µM (inactive)
NCI/ADR-RES
  GI50: > 100 µM (inactive)
UO-31
  GI50: > 100 µM (inactive)
A549
  GI50: > 100 µM (inactive)
BT-549
  GI50: > 100 µM (inactive)
Hs-578T
  GI50: 23.3 µM (inactive)
OVCAR-5
  GI50: > 100 µM (inactive)
MDA-MB-435
  GI50: > 10 µM (inactive)
SK-MEL-5
  GI50: > 100 µM (inactive)
MDA-MB-231
  GI50: 21.7 µM (inactive)
MCF7
  GI50: > 100 µM (inactive)
M14
  GI50: 90.6 µM (inactive)
HT-29
  GI50: > 100 µM (inactive)
K562
  GI50: > 100 µM (inactive)
SW-620
  GI50: > 100 µM (inactive)
HOP-92
  GI50: 24.6 µM (inactive)
OVCAR-3
  GI50: > 100 µM (inactive)
SNB-19
  GI50: > 100 µM (inactive)
SK-MEL-28
  GI50: > 100 µM (inactive)
